The supplement of paper PMC10883282

Key:
Test in all cases: standardised AUC of viability dose-response curve (72 h) (fraction (0-1)); higher = less growth inhibition (more resistant)
A204 = system: A204
How it was run: (§1)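 Viability of sarcoma cell lines was read with ATPLite after 72 h of triplicate treatment in 384-well plates with 2.5 µl of compound from a compound-plate series of 10 mM to 0.0002 mM. Viability was scaled 1 (full) to 0 (none) and fitted with a four-parameter log-logistic model for each drug and cell line. The reported standardised area under the dose-response curve in log-dose space comes from a modified drexplorer computeAUC, where 1 is no response and 0 is full response.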

G401 = system: G401
How it was run: as §1

HS729 = system: HS729
How it was run: as §1

HT1080 = system: HT1080
How it was run: as §1

KHOS-240S = system: KHOS-240S
How it was run: as §1

KHOS-NP = system: KHOS-NP
How it was run: as §1

MES-SA = system: MES-SA
How it was run: as §1

RD-ES = system: RD-ES
How it was run: as §1

RD = system: RD
How it was run: as §1

SK-ES-1 = system: SK-ES-1
How it was run: as §1

SK-LMS-1 = system: SK-LMS-1
How it was run: as §1

SW1353 = system: SW1353
How it was run: as §1

SW684 = system: SW684
How it was run: as §1

SW872 = system: SW872
How it was run: as §1

SW982 = system: SW982
How it was run: as §1

SYO-1 = system: SYO-1
How it was run: as §1

VA-ES-BJ = system: VA-ES-BJ
How it was run: as §1

Compound	standardised AUC (A204)	standardised AUC (G401)	standardised AUC (HS729)	standardised AUC (HT1080)	standardised AUC (KHOS-240S)	standardised AUC (KHOS-NP)	standardised AUC (MES-SA)	standardised AUC (RD-ES)	standardised AUC (RD)	standardised AUC (SK-ES-1)	standardised AUC (SK-LMS-1)	standardised AUC (SW1353)	standardised AUC (SW684)	standardised AUC (SW872)	standardised AUC (SW982)	standardised AUC (SYO-1)	standardised AUC (VA-ES-BJ)
C[C@@H]1COCCN1c1cc(-c2ccnn2C)c2ccnc(-c3ccn[nH]3)c2n1	0.689	0.819	0.782	0.686	0.603	0.826	0.641	0.673	0.75	0.637	0.751	0.791	0.828	0.706	0.615	0.606	0.626
O=C(Cc1ccc(-c2ccc(OCCN3CCOCC3)cc2)cn1)NCc1ccccc1 [KX2-391]	0.677	0.729	0.742	0.579	0.609	0.72	0.57	0.539	0.636	0.484	0.676	0.752	0.827	0.733	0.63	0.668	0.632
